# Source: patent publication EP1059033A1, “INDUSTRIAL ANTIBACTERIAL/ANTIFUNGAL AGENTS, ALGICIDES AND ANTI-BIOLOGICAL ADHESION AGENTS CONTAINING BENZYLAMINES” (Nissan Chemical Industries, Ltd., priority 1998, dated 1999)
# Where two headings read alike, the source gives them in different places.
# Tests used:
# Type in all cases: cell-based
# Penicillium funiculosum = test: Agar dilution MIC (Example 3); details: Talaromyces funiculosus, 168 h, agar plate, 27 °C, 7 days
# Procedure: (§1) Series of diluted samples (20000, 10000, 5000, 2500, 1250, 625, 313, 156, 78, 39 mg/l) of the compounds of the invention were prepared using dimethylsulfoxide. A sensitive culture medium-N (Nissui Seiyaku Co.) was used for bacteria and a potato dextrose agar culture medium (Nissui Seiyaku Co.) was used for fungi. 0.5 ml of each sample was added to and mixed with 9.5 ml of the culture medium, poured into a Petri dish and solidified to obtain a plate. As a result, the concentration of the compounds of the invention in the agar culture medium were 1000, 500, 250, 125, 62.5, 31.3, 15.6, 7.8, 3.9, 2.0 mg/l. The bacterium inoculated were cultured in a bouillon for the assay of sensitivity (Nissui Seiyaku Co.) at 37 °C for 20 hours, and the fungi were cultured in the potato dextrose agar culture medium (Nissui Seiyaku Co.) for 10 days and then a 10^6 CFU/ml suspension was prepared from each of them. A test bacteria or fungi suspension was streaked on an agar plate containing the compound of the present invention with platinum wire loop, and the agar plate was cultured at 37±1 °C for 18 to 20 hours for bacteria or at 27 °C for 7 days for fungi. A concentration at which no growth was seen was taken as minimum inhibitory concentration (MIC). Symbols in the tables mean the followings; • A: Bacillus subtilis, • B: Trichophyton mentagrophytes, • C: Staphylococcus aureus, • D: Aspergillus niger, • E: Penicillium funiculosum, • F: Candida albicans, • G: Micrococcus luteus, • H: Corynebacterium aquaticum, • I: Chaetomium globosum, • J: Fusarium moniliforme, • K: Saccharomyces cerevisiae, • L: Rhodotorula rubra, • M: Cladosporium cladosporioides, • N: Alternaria alternata.
# Saccharomyces cerevisiae = test: Agar dilution MIC (Example 3); details: 168 h, agar plate, 27 °C, 7 days
# Procedure: as §1
# [1] = test system: Cladosporium cladosporioides; test: Agar dilution MIC (Example 3); details: 168 h, agar plate, 27 °C, 7 days
# Procedure: as §1
# [2] = test system: Corynebacterium aquaticum; test: Agar dilution MIC (Example 3); details: Leifsonia aquatica, agar plate, 37±1 °C, 18 to 20 hours
# Procedure: as §1
# [3] = test system: Trichophyton mentagrophytes; test: Agar dilution MIC (Example 3); details: 168 h, agar plate, 27 °C, 7 days
# Procedure: as §1
# Chaetomium globosum = test: Agar dilution MIC (Example 3); details: 168 h, agar plate, 27 °C, 7 days
# Procedure: as §1
# Aspergillus niger = test: Agar dilution MIC (Example 3); details: 168 h, agar plate, 27 °C, 7 days
# Procedure: as §1
# Rhodotorula rubra = test: Agar dilution MIC (Example 3); details: 168 h, agar plate, 27 °C, 7 days
# Procedure: as §1
# Fusarium moniliforme = test: Agar dilution MIC (Example 3); details: Fusarium verticillioides, 168 h, agar plate, 27 °C, 7 days
# Procedure: as §1
# [4] = test system: freshwater green alga (Selenastrum capricornutum); test: Inhibition of propagation of freshwater green alga (Example 4); details: after 72 hours, cell number vs non-treated lot; for inhibition at 0.05 ppm: 50ppb, read-out: Propagation inhibiting rate(%) 50ppb; for inhibition at 0.5 ppm: 500ppb, read-out: Propagation inhibiting rate(%) 500ppb
# Procedure: A predetermined amount of each of the compounds of the invention was dissolved in a culture medium containing 10^5 /ml of a freshwater green alga (Selenastrum capricornutum) at a logarithmic growth phase to prepare samples having a concentration of the compound of the invention in the medium of 500 ppb and 50ppb respectively. The samples were stationary cultured at 23±1 °C for […] under continuous illumination.
# After 72 hours, the number of cells was measured using a hemacytometer to obtain propagation rate. The propagation inhibiting rate was calculated from comparison with the non-treated lot.
# [5] = test system: freshwater green alga (Scenedesmus pannonicus); test: Inhibition of propagation of freshwater algae (Example 6); details: Desmodesmus pannonicus, 500ppb
# Procedure: (§2) A predetermined amount each of the compounds of the invention was dissolved in a culture medium containing 10^5 /ml of a freshwater alga at a logarithmic growth phase to prepare samples having a concentration of the compound of the invention in the medium of 500 ppb and 50 ppb respectively. A shaking culture at 100 rpm was performed for […] under continuous illumination at 20±2 °C for freshwater diatom and at 23±2 °C for other algae.
# (§3) After 72 hours and 168 hours, the […] of cells was measured using a hemacytometer to obtain propagation rate. The propagation inhibiting rate was calculated from comparison with the non-treated lot. Symbols in the tables mean the followings; • A: freshwater green alga (Chlorella pyrenoidosa), • B: freshwater blue-green alga (Microcystis aeruginosa), • C: freshwater diatom (Diatoma elongatum), • D: freshwater green alga (Scenedesmus pannonicus).
# [6] = test system: Trichophyton mentagrophytes; details: 72 h, 100 ppm
# Procedure: 31.3 ml of Trichophyton mentagrophytes to be tested was added to 125 ml of a potato dextrose agar culture medium (Nissui Seiyaku Co.). The medium was stirred not to foam the solutions, poured into plates uniformly and solidified.
# Thereafter, predetermined amounts of the compounds of the invention were weighted and diluted with acetone to predetermined concentrations.
# Paper disks were impregnated with samples containing predetermined amounts of the compounds of the invention, laid on a filter, dried with air and placed on a plate containing test microbe at equal intervals.
# Trichophyton mentagrophytes was cultured at 28 °C for 3 days in a thermostatic chamber and the diameter of each inhibiting zone was measured to evaluate the activity of each compound. Symbols in the table mean the followings; • A: Trichophyton mentagrophytes, • ++: strongly inhibiting zone (equal to or more than 21 mm) is observed, • +: inhibiting zone (10 to 20 mm) is observed, • -: no inhibiting zone is observed.
# [7] = test system: Trichophyton mentagrophytes; test: Agar dilution MIC (Example 2); details: 168 h, agar plate, 27 °C, 7 days
# Procedure: (§4) Series of diluted samples (20000, 10000, 5000, 2500, 2000, 1250, 625, 313, 156, 78, 39, 20, 10, 5, 2.5, 1.25 mg/l) of the compounds of the invention were prepared using dimethylsulfoxide. A sensitive culture medium-N (Nissui Seiyaku Co.) was used for bacteria and a potato dextrose agar culture medium (Nissui Seiyaku Co.) was used for fungi. 0.5 ml of each sample was added to and mixed with 9.5 ml of the culture medium, poured into a Petri dish and solidified to obtain a plate. As a result, the concentration of the compounds of the invention in the agar culture medium were 1000, 500, 250, 125, 100, 62.5, 31.3, 15.6, 7.8, 3.9, 2.0, 1.0, 0.5, 0.25, 0.125, 0.062 mg/l. The bacterium inoculated were cultured in a bouillon for the assay of sensitivity (Nissui Seiyaku Co.) at 37 °C for 20 hours, and the fungi were cultured in the potato dextrose agar culture medium (Nissui Seiyaku Co.) for 10 days and then a 10^6 CFU/ml suspension was prepared from each of them. A test bacteria or fungi suspension was streaked on an agar plate containing the compound of the present invention with platinum wire loop, and the agar plate was cultured at 37±1 °C for 18 to 20 hours for bacteria or at 27 °C for 7 days for fungi. A concentration at which no growth was seen was taken as minimum inhibitory concentration [MIC(mg/l)]. Symbols in the table mean the followings; • A: Bacillus subtilis, • B: Trichophyton mentagrophytes, • C: Rhodotorula mucilaginosa.
# [8] = test system: freshwater green alga (Chlorella pyrenoidosa); test: Inhibition of propagation of freshwater algae (Example 6); details: Auxenochlorella pyrenoidosa, 500ppb
# Procedure: as §2, §3
# [9] = test system: freshwater blue-green alga (Microcystis aeruginosa); test: as above; details: 500ppb
# Procedure: as §2, §3
# [10] = test system: freshwater diatom (Diatoma elongatum); test: as above; details: Diatoma tenuis; for inhibition at 0.05 ppm: 50ppb; for inhibition at 0.5 ppm: 500ppb
# Procedure: as §2, §3
# Rhodotorula mucilaginosa = test: Agar dilution MIC (Example 2); details: 168 h, agar plate, 27 °C, 7 days
# Procedure: as §4
# [11] = test system: seawater diatom [Nitzschia closterium]; test: Inhibition of propagation of seawater diatom (Example 5); details: Cylindrotheca closterium, 72 h, read-out: Propagation inhibiting rate(%) 500ppb
# Procedure: A predetermined amount of each of the compounds of the invention was dissolved in culture media containing 10^5 /ml of a seawater diatom [Nitzschia closterium] at a logarithmic growth phase to prepare samples having a concentration of the compound in the medium of 500 ppb. The samples were stationary cultured at 22±1 °C for […] under continuous illumination.
# After 72 hours, cells were collected by centrifugation and disrupted by addition of methanol to extract chlorophyll, and the amount of chlorophyll was measured from absorbance using a spectrophotometer to obtain propagation rate. The propagation inhibiting rate was calculated from comparison with the non-treated lot.
# [12] = 72hr, read-out: Propagation inhibiting rate (%) 500ppb 72hr
# [13] = 168hr, read-out: Propagation inhibiting rate (%) 500ppb 168hr
# [14] = 168hr, read-out: Propagation inhibiting rate(%) 500ppb 168hr
# [15] = 72hr, read-out: Propagation inhibiting rate(%) 500ppb 72hr
# [16] = 72hr, read-out: Propagation inhibiting rate(%) 50ppb 72hr
# [17] = 168hr, read-out: Propagation inhibiting rate(%) 50ppb 168hr
SMILES,MIC (Saccharomyces cerevisiae) [µg/mL],MIC [1] [µg/mL],MIC [2] [µg/mL],inhibition at 0.05 ppm [4] [%],inhibition at 0.5 ppm [4] [%],"inhibition at 0.5 ppm [5, 13] [%]",Judgment (Target bacteria: A) [6],MIC [7] [µg/mL],MIC (Rhodotorula mucilaginosa) [µg/mL],other results
Cc1cc(C)cc(CN(C)Cc2ccc(C(C)(C)C)cc2)c1 [Compound 2],63,125,31.3,84,96,99,++ (strongly inhibiting zone (equal to or more than 21 mm) is observed),–,–,"MIC (Penicillium funiculosum): 31.3 µg/mL; MIC [3]: < 2 µg/mL; MIC (Chaetomium globosum): 31.3 µg/mL; MIC (Aspergillus niger): 125 µg/mL; MIC (Rhodotorula rubra): 125 µg/mL; MIC (Fusarium moniliforme): 63 µg/mL; inhibition at 0.5 ppm [5, 12]: 91%"
CN(Cc1ccc(C(C)(C)C)cc1)C1CCCc2ccccc21 (stereo not drawn) [Compound 6],31.3,125,15.6,–,70,–,++ (strongly inhibiting zone (equal to or more than 21 mm) is observed),< 0.062,–,"inhibition at 0.5 ppm [8, 14]: 79%"
CC(c1ccccc1Cl)N(C)Cc1ccc(C(C)(C)C)cc1 (stereo not drawn) [Compound 9],–,–,–,59,94,85,++ (strongly inhibiting zone (equal to or more than 21 mm) is observed),0.5,–,"inhibition at 0.5 ppm [8, 15]: 70%; inhibition at 0.5 ppm [9, 15]: 97%; inhibition at 0.5 ppm [9, 14]: 98%; inhibition at 0.05 ppm [10, 16]: 88%; inhibition at 0.05 ppm [10, 17]: 94%; inhibition at 0.5 ppm [10, 15]: 76%; inhibition at 0.5 ppm [10, 14]: 100%"
Cc1ccc(CN(C)Cc2ccc(C(C)(C)C)cc2)cc1C [Compound 23],125,125,31.3,65,97,–,–,2,–,MIC (Penicillium funiculosum): 63 µg/mL; MIC (Chaetomium globosum): 125 µg/mL; MIC (Fusarium moniliforme): 125 µg/mL
CN(Cc1ccc(C(C)(C)C)cc1)Cc1cccc2ccccc12 [Compound 30],–,–,–,–,94,–,++ (strongly inhibiting zone (equal to or more than 21 mm) is observed),< 0.062,15.6,–
CN(Cc1ccc(Cl)cc1)Cc1cccc2ccccc12 [Compound 31],–,–,–,88,95,79,+ (inhibiting zone (10 to 20 mm) is observed),–,–,"inhibition at 0.5 ppm [9, 15]: 90%; inhibition at 0.5 ppm [9, 14]: 100%; inhibition at 0.05 ppm [10, 16]: 61%; inhibition at 0.05 ppm [10, 17]: 87%; inhibition at 0.5 ppm [10, 15]: 81%; inhibition at 0.5 ppm [10, 14]: 95%"
CC(C)Cc1ccc(CN(C)Cc2cccc3ccccc23)cc1 [Compound 32],–,–,–,–,86,–,–,< 1,–,"inhibition at 0.5 ppm [5, 12]: 83%; inhibition at 0.5 ppm [8, 14]: 75%"
CC(C)(C)c1ccc(CNCc2ccc(Cl)c(Cl)c2)cc1 [Compound 34],–,–,–,–,98,–,–,7.8,62.5,inhibition at 0.5 ppm [11]: 100%
CN(Cc1ccc(C(C)(C)CCl)cc1)Cc1cccc2ccccc12 [Compound 35],–,–,–,75,94,–,–,7.8,7.8,–
Clc1ccc(CNCc2cccc3ccccc23)cc1Cl [Compound 49],–,–,–,–,97,–,–,15.6,62.5,inhibition at 0.5 ppm [11]: 100%
